Measured values taken from PMC12439480, “Dimeric CCK2R radiotheranostic tracers synergize with mTOR inhibition for enhanced tumor therapy” (Theranostics, 2025).
Where two headings read alike, the source gives them in different places. Numbered stars: 1 amine (or outer) side, 2 acyl side, 3 side chain; on linkers, the order of the positions; unused ones are H or OH. Square brackets hold non-standard residues; d marks the D form. Side chains are listed from the residue outwards. Peptide text beside a SMILES is read from it. * marks the point of attachment. DOTA = O=C(O)CN1CCN(CC(=O)O)CCN(CC(=O)*)CCN(CC(=O)O)CC1; d(γGlu) = O=C(O)[C@@H](CCC(=O)[*:2])N[*:1]; 1Nal = N[C@@H](Cc1cccc2ccccc12)C(=O)O; NMeNle = CCCC[C@H](NC)C(=O)O; PEG4 = NCCOCCOCCOCCOCCC(=O)O

Experiment: Ex vivo biodistribution of 177Lu-labeled compound
Parameters: species or system BALB/c nude mice
Settings: mouse, in vivo; for tissue to tissue ratio at 24 h / tissue to tissue ratio at 48 h / tissue to tissue ratio at 72 h / tissue to tissue ratio at 96 h / tissue to tissue ratio at 1 h / tissue to tissue ratio at 4 h: female, BALB/c nude, iv, total radioactivity
Description: To evaluate the biodistribution of [^177Lu]Lu-DOTA-CCK2R-dimer, AR42J tumor-bearing mice received intravenous (i.v.) injections of 3.7 MBq (≈ 120 pmol) of [^177Lu]Lu-DOTA-CCK2R-dimer (dissolved in 200 μL of saline; n = 3/group), and Mice were sacrificed at 1, 4, 24, 48, 72, and 96 h post-injection. The tissues of interest were excised, weighed, and analyzed for radioactivity using a γ-counter.
All animal studies were approved by the Ethics Committee of Fudan University Shanghai Cancer Center (No. FUSCC-IACUC- S2023- 0003). Five-week-old female BALB/c nude mice were purchased from Shanghai SLAC Laboratory Animal
Company. To establish cell-derived xenograft (CDX) models, 1 × 10⁶ AR42J cells (100 μL) were subcutaneously inoculated into the right shoulder of each mouse. […]
Radioactivity levels were measured using a gamma counter, with decay correction applied based on the injection time. The percentage of injected dose per gram of tissue (%ID/g) was calculated for each time point. […]

[1] = 3.7 MBq, Tumor-to-Bladder ratio (T/B)
[2] = 3.7 MBq, Tumor-to-Blood ratio (T/B)
[3] = 3.7 MBq, Tumor-to-Bone ratio (T/B)
[4] = 3.7 MBq, Tumor-to-Brain ratio (T/B)
[5] = 3.7 MBq, Tumor-to-Heart ratio (T/B)
[6] = 3.7 MBq, Tumor-to-Liver ratio (T/B)
[7] = 3.7 MBq, Tumor-to-Muscle ratio (T/M)
[8] = 3.7 MBq, Tumor-to-Stomach ratio (T/B)
[9] = Tumor-to-Large intestine ratio (T/B)
[10] = Tumor-to-Small intestine ratio (T/B)

SMILES: CCCC[C@@H](C(=O)N[C@@H](CC(=O)O)C(=O)N[C@@H](Cc1cccc2ccccc12)C(N)=O)N(C)C(=O)[C@H](Cc1c[nH]c2ccccc12)NC(=O)CCOCCOCCOCCOCCNC(=O)CC[C@@H](NC(=O)CC[C@H](NC(=O)CN1CCN(CC(=O)O)CCN(CC(=O)O)CCN(CC(=O)O)CC1)C(=O)N[C@H](CCC(=O)NCCOCCOCCOCCOCCC(=O)N[C@@H](Cc1c[nH]c2ccccc12)C(=O)N(C)[C@@H](CCCC)C(=O)N[C@@H](CC(=O)O)C(=O)N[C@@H](Cc1cccc2ccccc12)C(N)=O)C(=O)O)C(=O)O [[177Lu]Lu-DOTA-CCK2R-dimer, metal not drawn] ({DOTA}-E([d(γGlu)-PEG4-Trp-NMeNle-Asp-1Nal-NH2])[d(γGlu)][PEG4]W[NMeNle]D[1Nal]-NH2)
- tissue to tissue ratio at 24 h [1]: 35.4 ± 6.48
- tissue to tissue ratio at 48 h [1]: 194 ± 91
- tissue to tissue ratio at 72 h [1]: 44.7 ± 13.1
- tissue to tissue ratio at 96 h [1]: 13.5 ± 4.12
- tissue to tissue ratio at 1 h [2]: 2.95 ± 1.5
- tissue to tissue ratio at 4 h [2]: 13.3 ± 5.68
- tissue to tissue ratio at 24 h [2]: 141 ± 51.3
- tissue to tissue ratio at 48 h [2]: 186 ± 14.3
- tissue to tissue ratio at 72 h [2]: 768 ± 140
- tissue to tissue ratio at 96 h [2]: 226 ± 40.9
- tissue to tissue ratio at 1 h [3]: 35.1 ± 13.6
- tissue to tissue ratio at 4 h [3]: 53.2 ± 32.6
- tissue to tissue ratio at 24 h [3]: 165 ± 45
- tissue to tissue ratio at 48 h [3]: 1070 ± 247
- tissue to tissue ratio at 72 h [3]: 117 ± 40.1
- tissue to tissue ratio at 96 h [3]: 46 ± 9.49
- tissue to tissue ratio at 1 h [4]: 141 ± 50
- tissue to tissue ratio at 4 h [4]: 470 ± 81.1
- tissue to tissue ratio at 24 h [4]: 6080 ± 100
- tissue to tissue ratio at 48 h [4]: 1710 ± 151
- tissue to tissue ratio at 72 h [4]: 746 ± 85.1
- tissue to tissue ratio at 96 h [4]: 189 ± 50.1
- tissue to tissue ratio at 1 h [5]: 15.3 ± 5.59
- tissue to tissue ratio at 96 h [5]: 105 ± 5.19
- tissue to tissue ratio at 1 h [6]: 5.19 ± 2.8
- tissue to tissue ratio at 4 h [6]: 4.37 ± 0.9
- tissue to tissue ratio at 24 h [6]: 10 ± 0.99
- tissue to tissue ratio at 48 h [6]: 7.78 ± 1.96
- tissue to tissue ratio at 1 h [7]: 53.3 ± 18.2
- tissue to tissue ratio at 4 h [7]: 246 ± 180
- tissue to tissue ratio at 24 h [7]: 417 ± 210
- tissue to tissue ratio at 48 h [7]: 531 ± 153
- tissue to tissue ratio at 72 h [7]: 348 ± 238
- tissue to tissue ratio at 96 h [7]: 90.8 ± 32.8
- tissue to tissue ratio at 1 h [8]: 4.83 ± 1.46
- tissue to tissue ratio at 96 h [8]: 13.4 ± 6.42
- tissue to tissue ratio at 1 h (3.7 MBq, 1 h p.i., read-out: Tumor-to-Kidney ratio (T/B)): 2.22 ± 1.01
- tissue to tissue ratio at 48 h (3.7 MBq, 48 h p.i., read-out: Tumor-to-Kidney ratio (T/B)): 4.16 ± 3.43
- tissue to tissue ratio at 1 h (Tumor-to-Bladder ratio (T/B)): 24.8 ± 11
- tissue to tissue ratio at 4 h (Tumor-to-Bladder ratio (T/B)): 40.4 ± 12.1
- tissue to tissue ratio at 4 h (Tumor-to-Heart ratio (T/B)): 29.6 ± 12.8
- tissue to tissue ratio at 24 h (Tumor-to-Heart ratio (T/B)): 134 ± 59.9
- tissue to tissue ratio at 48 h (Tumor-to-Heart ratio (T/B)): 406 ± 29.2
- tissue to tissue ratio at 72 h (Tumor-to-Heart ratio (T/B)): 80.5 ± 26.4
- tissue to tissue ratio at 1 h [9]: 17.1 ± 5.58
- tissue to tissue ratio at 4 h [9]: 24.4 ± 5.51
- tissue to tissue ratio at 24 h [9]: 90.7 ± 23.4
- tissue to tissue ratio at 48 h [9]: 73.2 ± 14.5
- tissue to tissue ratio at 72 h [9]: 98.9 ± 74.4
- tissue to tissue ratio at 96 h [9]: 26.3 ± 11
- tissue to tissue ratio at 72 h (Tumor-to-Liver ratio (T/B)): 5.53 ± 1.05
- tissue to tissue ratio at 96 h (Tumor-to-Liver ratio (T/B)): 2.7 ± 0.63
- tissue to tissue ratio at 1 h (Tumor-to-Lung ratio (T/B)): 7.93 ± 3.29
- tissue to tissue ratio at 4 h (Tumor-to-Lung ratio (T/B)): 15.9 ± 6.64
- tissue to tissue ratio at 24 h (Tumor-to-Lung ratio (T/B)): 331 ± 35
- tissue to tissue ratio at 48 h (Tumor-to-Lung ratio (T/B)): 900 ± 88
- tissue to tissue ratio at 72 h (Tumor-to-Lung ratio (T/B)): 299 ± 66.5
- tissue to tissue ratio at 96 h (Tumor-to-Lung ratio (T/B)): 61.2 ± 12.8
- tissue to tissue ratio at 1 h [10]: 14 ± 5.39
- tissue to tissue ratio at 4 h [10]: 28.8 ± 10.3
- tissue to tissue ratio at 24 h [10]: 229 ± 10
- tissue to tissue ratio at 48 h [10]: 112 ± 61
- tissue to tissue ratio at 72 h [10]: 187 ± 27.7
- tissue to tissue ratio at 96 h [10]: 39.6 ± 12.2
- tissue to tissue ratio at 1 h (Tumor-to-Spleen ratio (T/B)): 8.21 ± 4.18
- tissue to tissue ratio at 4 h (Tumor-to-Spleen ratio (T/B)): 6.59 ± 0.75
- tissue to tissue ratio at 24 h (Tumor-to-Spleen ratio (T/B)): 55 ± 21.1
- tissue to tissue ratio at 48 h (Tumor-to-Spleen ratio (T/B)): 124 ± 50
- tissue to tissue ratio at 72 h (Tumor-to-Spleen ratio (T/B)): 51.8 ± 19.5
- tissue to tissue ratio at 96 h (Tumor-to-Spleen ratio (T/B)): 9.63 ± 3.59
- tissue to tissue ratio at 4 h (Tumor-to-Stomach ratio (T/B)): 5.05 ± 1.72
- tissue to tissue ratio at 24 h (Tumor-to-Stomach ratio (T/B)): 5.94 ± 1.92
- tissue to tissue ratio at 48 h (Tumor-to-Stomach ratio (T/B)): 4.15 ± 0.31
- tissue to tissue ratio at 72 h (Tumor-to-Stomach ratio (T/B)): 8.41 ± 1.18
- tissue to tissue ratio at 4 h (4 h p.i., read-out: Tumor-to-Kidney ratio (T/B)): 2.19 ± 0.23
- tissue to tissue ratio at 24 h (24 h p.i., read-out: Tumor-to-Kidney ratio (T/B)): 1.84 ± 0.56
- tissue to tissue ratio at 72 h (72 h p.i., read-out: Tumor-to-Kidney ratio (T/B)): 1.65 ± 0.05
- tissue to tissue ratio at 96 h (96 h p.i., read-out: Tumor-to-Kidney ratio (T/B)): 1.37 ± 0.84
- tissue uptake at 1 h (Bladder uptake): 0.84 ± 0.31 %ID/g
- tissue uptake at 4 h (Bladder uptake): 0.4 ± 0.13 %ID/g
- tissue uptake at 24 h (Bladder uptake): 0.18 ± 0.04 %ID/g
